In patent US4423210A, “Intermediates for the preparation of 3-demethoxyfortimicins” (Abbott Laboratories, priority 1982, dated 1983):
Where a name gives a salt, the structure may show the parent alone. Read-outs that look alike come from different tables or passages of the source.

Columns and labels:
[1] = system: Kleb. pneumoniae 10031; assay: in vitro antibiotic activity, two-fold agar dilution (MIC); type: cell-based, Klebsiella pneumoniae
Description: (§1) The in vitro activity of 3-demethoxyfortimicin A of Example 10 is determined by a two-fold dilution test using 10 ml. of Mueller-Hinton agar per Petri plate. The agar plates are innoculated with approximately 1×10^5 of the test organisms indicated in Table II, delivered to the agar surface by a Steers replicator. The innoculated plates are incubated for 24 hours at 35° C. in the presence of varying concentrations of 3-demethoxyfortimicin A tetrahydrochloride of Example 10 or fortimicin A sulfate as a comparative antibiotic.

[2] = system: Pseudo aeruginosa 27853; assay: as above; type: cell-based, Pseudomonas aeruginosa
Description: as §1

[3] = system: Pseudo. aeruginosa 209; assay: as above; type: cell-based, Pseudomonas aeruginosa
Description: as §1

[4] = system: E. coli 76-2; assay: as above; type: cell-based, Escherichia coli
Description: as §1

[5] = system: Sal. typhimurium Ed. #9; assay: as above; type: cell-based, Salmonella typhimurium; conditions: Salmonella enterica
Description: as §1

[6] = system: Pseudo. aeruginosa KY 8516; assay: as above; type: cell-based; conditions: Pseudomonas aeruginosa
Description: as §1

[7] = system: Providencia 1577; assay: as above; type: cell-based
Description: as §1

[8] = system: Kleb. pneumoniae KY 4262; assay: as above; type: cell-based; conditions: Klebsiella pneumoniae
Description: as §1

[9] = system: Pseudo. aeruginosa BMH #10; assay: as above; type: cell-based; conditions: Pseudomonas aeruginosa
Description: as §1

[10] = system: Enterobacter aerogenes 13048; assay: as above; type: cell-based
Description: as §1

[11] = system: Proteus vulgaris JJ; assay: as above; type: cell-based
Description: as §1

[12] = system: Proteus mirabilis Fin. #9; assay: as above; type: cell-based
Description: as §1

[13] = system: Shigella sonnei 9290; assay: as above; type: cell-based; conditions: Mueller-Hinton agar, 24 hours, 35° C.
Description: as §1

[14] = system: E. coli JUHL; assay: as above; type: cell-based; conditions: Escherichia coli
Description: as §1

[15] = system: Staph. aureus Smith; assay: as above; type: cell-based; conditions: Staphylococcus aureus
Description: as §1

[16] = system: Proteus rettgeri U6333; assay: as above; type: cell-based; conditions: Providencia rettgeri
Description: as §1

[17] = system: E. coli BL 3676 (Res); assay: as above; type: cell-based; conditions: Escherichia coli
Description: as §1

[18] = system: Pseudo. aeruginosa KY 8512; assay: as above; type: cell-based; conditions: Pseudomonas aeruginosa
Description: as §1

[19] = system: Strep. faecalis 10541; assay: as above; type: cell-based
Description: as §1

[20] = system: Serratia marcescens 4003; assay: as above; type: cell-based
Description: as §1

[21] = system: strains tested (Table II); assay: overall antibiotic activity relative to fortimicin A sulfate; type: cell-based
Description: as §1

Question: Which MIC ([1]; Klebsiella pneumoniae, 10031, 24 h) does the source give for `COC1C(O)C(N)C(OC2OC(C(C)N)CCC2N)C(O)C1N(C)C(=O)CN` (stereo not drawn) [Fortimicin A Sulfate, fortimicin A sulfate, reference compound] here?
Answer: 1.56 µg/mL

Question: What about the MIC ([2]; Pseudomonas aeruginosa, 27853, 24 h) of the same compound?
Answer: 12.5 µg/mL

Question: What about the MIC ([3]; Pseudomonas aeruginosa, 209, 24 h) of the same compound?
Answer: 100 µg/mL

Question: And the MIC ([4]; Escherichia coli, 762, 24 h)?
Answer: 3.1 µg/mL

Question: And the MIC ([5]; TYPHIMURIUM, 24 h)?
Answer: 3.1 µg/mL

Question: What about the MIC ([6]; KY8516, 24 h) of the same compound?
Answer: 6.2 µg/mL

Question: And the MIC ([7]; Providencia, 1577, 24 h)?
Answer: 1.56 µg/mL

Question: What about the MIC ([8]; KY4262, 24 h) of the same compound?
Answer: 6.2 µg/mL

Question: And the MIC ([9]; 24 h)?
Answer: 0.78 µg/mL

Question: And the MIC ([10]; Klebsiella aerogenes, 13048, 24 h)?
Answer: 3.1 µg/mL

Question: And the MIC ([11]; Proteus vulgaris, 24 h)?
Answer: 3.1 µg/mL

Question: And the MIC ([12]; Proteus mirabilis, 24 h)?
Answer: 3.1 µg/mL

Question: And the MIC [13]?
Answer: 6.2 µg/mL

Question: And the MIC ([14]; 24 h)?
Answer: 3.1 µg/mL

Question: What about the MIC ([15]; 24 h) of the same compound?
Answer: 0.78 µg/mL

Question: And the MIC ([16]; U6333, 24 h)?
Answer: 12.5 µg/mL

Question: And the MIC ([17]; 24 h)?
Answer: 25 µg/mL

Question: What about the MIC ([18]; KY8512, 24 h) of the same compound?
Answer: 6.2 µg/mL

Question: And the MIC ([19]; Enterococcus faecalis, 10541, 24 h)?
Answer: 50 µg/mL

Question: What about the MIC ([20]; Serratia marcescens, 4003, 24 h) of the same compound?
Answer: 3.1 µg/mL

Question: With `CC(N)C1CCC(N)C(OC2C(N)C(O)CC(N(C)C(=O)CN)C2O)O1` (stereo not drawn) [3-Demethoxyfortimicin A tetrahydrochloride] as the compound, how does the MIC ([1]; Klebsiella pneumoniae, Kleb. pneumoniae 10031, Mueller-Hinton agar, 24 hours, 35° C., read-out: MIC) read?
Answer: 1.56 µg/mL

Question: And the MIC ([2]; Pseudomonas aeruginosa, Pseudo aeruginosa 27853, Mueller-Hinton agar, 24 hours, 35° C., read-out: MIC)?
Answer: 6.2 µg/mL

Question: What about the MIC ([3]; Pseudomonas aeruginosa, Pseudo. aeruginosa 209, Mueller-Hinton agar, 24 hours, 35° C., read-out: MIC) of the same compound?
Answer: 100 µg/mL

Question: And the MIC ([4]; Escherichia coli, 762, E. coli 76-2, Mueller-Hinton agar, 24 hours, 35° C., read-out: MIC)?
Answer: 1.56 µg/mL

Question: And the “activity relative to that of fortimicin A sulfate” value ([21]; against many of the susceptible strains tested)?
Answer: ~200%

Question: And the “overall activity relative to that of fortimicin A sulfate” value ([21]; overall, all strains of Table II)?
Answer: approximately 137%

Question: And the MIC ([5]; Sal. typhimurium Ed. #9, Mueller-Hinton agar, 24 hours, 35° C., read-out: MIC)?
Answer: 3.1 µg/mL

Question: What about the MIC ([6]; KY8516, Pseudo. aeruginosa KY 8516, Mueller-Hinton agar, 24 hours, 35° C., read-out: MIC) of the same compound?
Answer: 3.1 µg/mL

Question: And the MIC ([7]; Providencia 1577, Mueller-Hinton agar, 24 hours, 35° C., read-out: MIC)?
Answer: 1.56 µg/mL

Question: And the MIC ([8]; KY4262, Kleb. pneumoniae KY 4262, Mueller-Hinton agar, 24 hours, 35° C., read-out: MIC)?
Answer: 3.1 µg/mL

Question: What about the MIC ([9]; Pseudo. aeruginosa BMH #10, Mueller-Hinton agar, 24 hours, 35° C., read-out: MIC) of the same compound?
Answer: 0.78 µg/mL

Question: What about the MIC ([10]; Klebsiella aerogenes, Enterobacter aerogenes 13048, Mueller-Hinton agar, 24 hours, 35° C., read-out: MIC) of the same compound?
Answer: 3.1 µg/mL

Question: And the MIC ([11]; Proteus vulgaris JJ, Mueller-Hinton agar, 24 hours, 35° C., read-out: MIC)?
Answer: 3.1 µg/mL

Question: What about the MIC ([12]; Proteus mirabilis Fin. #9, Mueller-Hinton agar, 24 hours, 35° C., read-out: MIC) of the same compound?
Answer: 3.1 µg/mL

Question: And the MIC [13]?
Answer: 3.1 µg/mL

Question: What about the MIC ([14]; E. coli JUHL, Mueller-Hinton agar, 24 hours, 35° C., read-out: MIC) of the same compound?
Answer: 3.1 µg/mL

Question: What about the MIC ([15]; Staph. aureus Smith, Mueller-Hinton agar, 24 hours, 35° C., read-out: MIC) of the same compound?
Answer: 0.78 µg/mL

Question: And the MIC ([16]; Proteus rettgeri U6333, Mueller-Hinton agar, 24 hours, 35° C., read-out: MIC)?
Answer: 6.2 µg/mL

Question: And the MIC ([17]; E. coli BL 3676 (Res), Mueller-Hinton agar, 24 hours, 35° C., read-out: MIC)?
Answer: 25 µg/mL

Question: What about the MIC ([18]; KY8512, Pseudo. aeruginosa KY 8512, Mueller-Hinton agar, 24 hours, 35° C., read-out: MIC) of the same compound?
Answer: 3.1 µg/mL

Question: What about the MIC ([19]; Enterococcus faecalis, Strep. faecalis 10541, Mueller-Hinton agar, 24 hours, 35° C., read-out: MIC) of the same compound?
Answer: 25 µg/mL

Question: And the MIC ([20]; Serratia marcescens 4003, Mueller-Hinton agar, 24 hours, 35° C., read-out: MIC)?
Answer: 1.56 µg/mL
